Results taken from ChEMBL document CHEMBL3769332, “Affinity-Based Fluorescence Polarization Assay for High-Throughput Screening of Prolyl Hydroxylase 2 Inhibitors” (ACS Med Chem Lett, 2015).

Target: Egl nine homolog 1 (Homo sapiens, UniProt Q9GZT9)
Sequence (Q9GZT9 whole entry): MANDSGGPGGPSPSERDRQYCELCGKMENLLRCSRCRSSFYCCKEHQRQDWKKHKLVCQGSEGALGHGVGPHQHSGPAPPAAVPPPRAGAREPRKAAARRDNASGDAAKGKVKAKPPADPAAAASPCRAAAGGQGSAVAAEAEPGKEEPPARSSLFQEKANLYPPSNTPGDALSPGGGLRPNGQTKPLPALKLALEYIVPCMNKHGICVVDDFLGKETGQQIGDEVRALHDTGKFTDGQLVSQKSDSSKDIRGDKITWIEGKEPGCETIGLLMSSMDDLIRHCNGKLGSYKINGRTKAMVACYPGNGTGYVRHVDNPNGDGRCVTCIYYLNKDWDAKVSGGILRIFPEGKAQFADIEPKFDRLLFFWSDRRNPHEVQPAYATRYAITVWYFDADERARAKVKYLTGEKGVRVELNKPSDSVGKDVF

| Compound | IC50 [nM] |
| --- | --- |
| Cc1ccc(-c2cnc(C(=O)NCC(=O)O)c(O)c2)cc1 | 890 |
| O=c1c(-n2ccnn2)c[nH]n1-c1cc(N2CCOCC2)ncn1 [MOLIDUSTAT] | 876 |
